Data as given in patent US20250129088A1, “CEREBLON E3 UBIQUITIN LIGASE INHIBITOR” (Gan & Lee Pharmaceuticals Co., Ltd., priority 2022, published 2025).

Experiments:
Assay type in all cases: cell-based
MV-4-11 cells = experiment: MV-4-11 cell proliferation inhibition, CCK-8; conditions: Homo sapiens, MV4-11, 96 h, MV-4-11, 4 days, Table 8, positive control Ibrutinib
Experimental: The complete medium required for MV-4-11 cells is IMDM (ATCC, Product number: 30-2005) basal medium containing 10% fetal bovine serum. MV-4-11 cells were seeded in a 96-well plate at a density of 7,500 cells/well, and different concentrations of the compound of the present invention and positive control samples Alisertib (source: Bide Pharmaceuticals), Palbociclib (source: Bide Pharmaceuticals), Ibrutinib (source Bide Pharmaceuticals) treated cells. The cells were incubated in a 37° C., 5% CO2 cell incubator for 4 days. Cell viability was detected using the CCK-8 kit (Beyotime, Product number: C0040) according to the manufacturer's instructions. According to the inhibition rate, GraphPad Prism software was used to calculate the IC50 value of each compound for 4 days, and the results are shown in Table 6-8.

22RV1 cells = experiment: 22RV1 cell proliferation inhibition, CCK-8; conditions: 22RV1, 7 days
Experimental: The complete medium required for 22RV1 cells is RPM11640 (ATCC, Product number: 30-2001) basal medium containing 10% fetal bovine serum. 22RV1 cells were seeded in a 96-well plate at a density of 4,000 cells/well, and the next day, different concentrations of the compound of the present invention and the positive control sample JQ1 (source: Bide Pharmaceuticals) were prepared to treat the cells, and the cells were cultured at 37° C. and 5% CO2 for 7 days in the incubator. Cell viability was detected using the CCK-8 kit (Beyotime, Product number: C0040) according to the manufacturer's instructions. According to the inhibition rate, the GraphPad Prism software was used to calculate the IC50 value of each compound for 7 days, and the results are shown in Table 4.

MCF-7 cells = experiment: MCF-7 cell proliferation inhibition, CCK-8; conditions: Homo sapiens, MCF7, 216 h, MCF-7, 9 days
Experimental: The complete medium required for MCF-7 cells is DMEM (gibco, Product number: 11995-065) basal medium containing 10% fetal bovine serum. MCF-7 cells were seeded in a 96-well plate at a density of 800/well, and different concentrations of the compound of the present invention and the positive control sample ARV-471 (source: Enochem) were prepared to treat the cells. The cells were incubated at 37° C., 5% 9 days in a CO2 cell incubator. Cell viability was detected using the CCK-8 kit (Beyotime, Product number: C0040) according to the manufacturer's instructions. According to the inhibition rate, GraphPadPrism software was used to calculate the IC50 value of each compound for 9 days, and the results are shown in Table 18.

T-47D cells = experiment: T-47D cell proliferation inhibition, CCK-8; conditions: Homo sapiens, T47D, 144 h, 6 days
Experimental: The complete medium required for T-47D cells is 1640 (ATCC, Product number: A10491-01) basal medium containing 10% fetal bovine serum. T-47D cells were seeded in a 96-well plate at a density of 3,000/well, and different concentrations of the compound of the present invention and the positive control sample ARV-471 (source: Innochem) were prepared to treat the cells. The cells were incubated at 37° C., 5% for 6 days in a CO2 cell incubator. Cell viability was detected using the CCK-8 kit (Beyotime, Product number: C0040) according to the manufacturer's instructions. According to the inhibition rate, the GraphPadPrism software was used to calculate the IC50 value of each compound for 6 days, and the results are shown in Table 17.

| SMILES | IC50 (MV-4-11 cells) | IC50 (22RV1 cells; Homo sapiens, 168 h) | IC50 (MCF-7 cells) | IC50 (T-47D cells) | IC50 (22RV1 cells) |
| --- | --- | --- | --- | --- | --- |
| Cc1sc2c(c1C)C(c1ccc(Cl)cc1)=N[C@@H](CC(=O)N1CCC3(CCc4cc5c(cc4O3)CN(C3CCC(=O)NC3=O)C5=O)CC1)c1nnc(C)n1-2 (stereo partly drawn) [PROTAC 47, 3-(1-(2-((S)-4-(4-chlorophenyl)-2,3,9-trimethyl-6H-thieno[3,2-f][1,2,4]triazolo[4,3-a][1,4]diazepine-6-yl)acetyl)-6′-oxo-3′,4′,6′,8′-tetrahydro-7′H-spiro[piperidine-4,2′-pyrano[2,3-f]isoindole]-7′-yl)piperidine-2,6-dione] | 17 nM | 103 nM |  |  |  |
| Cc1sc2c(c1C)C(c1ccc(Cl)cc1)=N[C@@H](CC(=O)N1CC3(CCc4cc5c(cc4O3)CN(C3CCC(=O)NC3=O)C5=O)C1)c1nnc(C)n1-2 (stereo partly drawn) [PROTAC 46, 3-(1-(2-((S)-4-(4-chlorophenyl)-2,3,9-trimethyl-6H-thieno[3,2-f][1,2,4]triazolo[4,3-a][1,4]diazepine-6-yl)acetyl)-6′-oxo-3′,4′,6′,8′-tetrahydro-7′H-spiro[azetidine-3,2′-pyrano[2,3-f]isoindole]-7′-yl)piperidine-2,6-dione] | 5.4 nM | 226 nM |  |  |  |
| O=C1CCC(N2Cc3ccc4c(c3C2=O)OCC2(CCN(C3CCC5(CC3)CCN(c3ccc([C@@H]6c7ccc(O)cc7CC[C@@H]6c6ccccc6)cc3)CC5)CC2)C4)C(=O)N1 (stereo partly drawn) [PROTAC 59, 3-(1-(3-(4-((1R,2S)-6-hydroxy-2-phenyl-1,2,3,4-tetrahydronaphthalen-1-yl)phenyl)-3-azaspiro[5.5]undec-9-yl)-9′-oxo-7′,9′-dihydro-2′H-spiro[piperidin-4,3′-pyrano[2,3-f]isoindole]-8′(4′H)-yl)piperidine-2,6-dione] |  |  | 130 nM | 5.2 nM |  |
| O=C1CCC(N2Cc3cc4c(cc3C2=O)OCC2(CCN(C3CC5(CCN(c6ccc([C@@H]7c8ccc(O)cc8CC[C@@H]7c7ccccc7)cc6)CC5)C3)CC2)O4)C(=O)N1 (stereo partly drawn) [PROTAC 58, 3-(1-(7-(4-((1R,2S)-6-hydroxy-2-phenyl-1,2,3,4-tetrahydronaphthalen-1-yl)phenyl)-7-azaspiro [3.5]non-2-yl)-6′-oxo-6′,8′-dihydro-3′H,7′H-spiro[piperidine-4,2′-[1,4]dioxino[2,3-f]isoindol]-7′-yl)piperidine-2,6-dione] |  |  | 20 nM | 1 nM |  |
| Cc1sc2c(c1C)C(c1ccc(Cl)cc1)=N[C@@H](CC(=O)N1CCC3(CCc4cc5c(cc4O3)C(=O)N(C3CCC(=O)NC3=O)C5)CC1)c1nnc(C)n1-2 (stereo partly drawn) [PROTAC 48, 3-(1-(2-((S)-4-(4-chlorophenyl)-2,3,9-trimethyl-6H-thieno[3,2-f][1,2,4]triazolo[4,3-a][1,4]diazepine-6-yl)acetyl)-8′-oxo-3′,4′,6′,8′-tetrahydro-7′H-spiro[piperidine-4,2′-pyrano[2,3-f]isoindole]-7′-yl)piperidine-2,6-dione] | 0.96 nM | 24 nM |  |  |  |
| Cc1sc2c(c1C)C(c1ccc(Cl)cc1)=N[C@@H](CC(=O)N1CCC3(CCc4cc5c(cc4O3)C(=O)N(C3CCC(=O)NC3=O)C5=O)CC1)c1nnc(C)n1-2 (stereo partly drawn) [PROTAC 50, 1-(2-((S)-4-(4-chlorophenyl)-2,3,9-trimethyl-6H-thieno[3,2-f][1,2,4]triazole[4,3-a][1,4]diazepine-6-yl)acetyl)-7′-(2,6-dioxopiperidin-3-yl)-3′,4′-dihydro-6′H-spiro[piperidine-4,2′-pyrano[2,3-f]isoindole]-6′,8′(7′H)-dione] | 6.9 nM | 15 nM |  |  |  |
| O=C1CCC(N2Cc3cc4c(cc3C2=O)CCC2(CN(C3CCC5(CC3)CN(c3ccc([C@@H]6c7ccc(O)cc7CC[C@@H]6c6ccccc6)cc3)C5)C2)O4)C(=O)N1 (stereo partly drawn) [PROTAC 55, 3-(1-(2-(4-((1R,2S)-6-hydroxy-2-phenyl-1,2,3,4-tetrahydronaphthalen-1-yl)phenyl)-2-azaspiro [3.5]non-7-yl)-6′-oxo-3′,4′,6′,8′-tetrahydro-7′H-spiro[azetidine-3,2′-pyrano[2,3-f]isoindol]-7′-yl)piperidine-2,6-dione] |  |  | 40 nM | 6.6 nM |  |
| O=C1CCC(N2Cc3cc4c(cc3C2=O)CCC2(CN(C3CC5(CCN(c6ccc([C@@H]7c8ccc(O)cc8CC[C@@H]7c7ccccc7)cc6)CC5)C3)C2)O4)C(=O)N1 (stereo partly drawn) [PROTAC 56, 3-(1-(7-(4-((1R,2S)-6-hydroxy-2-phenyl-1,2,3,4-tetrahydronaphthalen-1-yl)phenyl)-7-azaspiro[3.5]non-2-yl)-6′-oxo-3′,4′,6′,8′-tetrahydro-7′H-spiro[azetidine-3,2′-pyrano[2,3-f]isoindol]-7′-yl)piperidine-2,6-dione] |  |  | 70 nM | 1.6 nM |  |
| Cc1sc2c(c1C)C(c1ccc(Cl)cc1)=N[C@@H](CC(=O)N1CCC3(CC1)COc1cc4c(cc1O3)CN(C1CCC(=O)NC1=O)C4=O)c1nnc(C)n1-2 (stereo partly drawn) [PROTAC 49, 3-(1-(2-((S)-4-(4-chlorophenyl)-2,3,9-trimethyl-6H-thieno[3,2-f][1,2,4]triazolo[4,3-a][1,4]diazepine-6-yl)acetyl)-6′-oxo-6′,8′-dihydro-3′H,7′H-spiro[piperidin-4,2′-[1,4]dioxino[2,3-f]isoindole]-7′-yl)piperidine-2,6-dione] | 8.2 nM | 141 nM |  |  |  |
| Cc1sc2c(c1C)C(c1ccc(Cl)cc1)=N[C@@H](CC(=O)OC(C)(C)C)c1nnc(C)n1-2 [JQ1, reference compound] |  |  |  |  | 44 nM |
| O=C1CCC(N2Cc3cc4c(cc3C2=O)CCC2(CCN(C3CC5(CCN(c6ccc([C@@H]7c8ccc(O)cc8CC[C@@H]7c7ccccc7)cc6)CC5)C3)CC2)O4)C(=O)N1 (stereo partly drawn) [PROTAC 57, 3-(1-(7-(4-((1R,2S)-6-hydroxy-2-phenyl-1,2,3,4-tetrahydronaphthalen-1-yl)phenyl)-7-nitrogenheterospiro[3.5]non-2-yl)-6′-oxo-3′,4′,6′,8′-tetrahydro-7′H-spiro[piperidin-4,2′-pyrano [2,3-f]isoindole]-7′-yl)piperidine-2,6-dione] |  |  | 10 nM | 2 nM |  |
| O=C1CCC(N2C(=O)c3cc4c(cc3C2=O)C2(CCN(C3CCC5(CC3)CCN(c3ccc([C@@H]6c7ccc(O)cc7CC[C@@H]6c6ccccc6)cc3)CC5)CC2)CO4)C(=O)N1 (stereo partly drawn) [PROTAC 54, 6-(2,6-dioxopiperidin-3-yl)-1′-(3-(4-((1R,2S)-6-hydroxy-2-phenyl-1,2,3,4-tetralin-1-yl)phenyl)-3-azaspiro[5.5]undec-9-yl)-6-hydrogen-2H,5H-spiro[furo[2,3-f]isoindole-3,4′-piperidine]-5,7-dione] |  |  | 170 nM | 68 nM |  |
| O=C1CCC(N2Cc3cc4c(cc3C2=O)OC2(CC4)CN(C3CCC4(CC3)CN(c3ccc([C@@H]5c6ccc(O)cc6CC[C@@H]5c5ccccc5)cc3)C4)C2)C(=O)N1 (stereo partly drawn) [PROTAC 53, 3-(1-(2-(4-((1R,2S)-6-hydroxy-2-phenyl-1,2,3,4-tetrahydronaphthalen-1-yl)phenyl)-2-azaspiro [3.5]non-7-yl)-8′-oxo-3′,4′,6′,8′-tetrahydro-7′H-spiro[azetidine-3,2′-pyrano[2,3]isoindol]-7′-yl]piperidine-2,6-dione] |  |  | 90 nM | 2.9 nM |  |
| Cc1sc2c(c1C)C(c1ccc(Cl)cc1)=N[C@@H](CC(=O)N1CC3(CCc4cc5c(cc4O3)C(=O)N(C3CCC(=O)NC3=O)C5=O)C1)c1nnc(C)n1-2 (stereo partly drawn) [PROTAC 51, 1-(2-((S)-4-(4-chlorophenyl)-2,3,9-trimethyl-6H-thieno[3,2-f][1,2,4]triazole[4,3-a][1,4]diazepine-6-yl)acetyl)-7′-(2,6-dioxopiperidin-3-yl)-3′,4′-dihydro-6′H-spiro[azetidine-3,2′-pyrano[2,3-f]isoindole]-6′,8′(7′H)-dione] | 20 nM | 123 nM |  |  |  |
